# Measured values as given in patent US9504672B2, “Compositions and methods for treating or preventing pneumovirus infection and associated diseases” (MicroDose Therapeutx, Inc., priority 2012, dated 2016).
# Like-named read-outs stand apart in the source and are kept apart here.
# Columns and labels:
# clinical = details: human, in vivo, 132 ug
# Description: (§2) In summary, the MicroDose Inhaler operation comprises the drug powder contained in a protective blister until delivery. The blister is pierced externally and then placed in contact with a piezoelectric vibrator within the MicroDose Inhaler. When the patient inhales, an airflow sensor automatically turns on the piezo which provides energy to deaggregate the particles of powder and aerosolizes them into the inhalation airstream, providing synchronized delivery. The MicroDose Inhaler was triggered by pressure drop and programmed to produce a series of brief aerosol bursts of predetermined duration within the range of 0.1 to 2.0 seconds, preferably 0.1 seconds, early during each inhalation cycle and for 16 consecutive breaths. The studies were conducted as follows:
# (§3) Subjects were enrolled in cohorts of 12 subjects. […] The study consisted of 3 visits: Visit 1 (Screening), Visit 2 (Dosing), Visit 3 (Follow up) and subjects remained at the study site for pharmacokinetic (PK) sampling, spirometry, and safety assessments. […] Day 1 was the first day of dosing and Day 10 was the final day of dosing, following which subjects remained at the study site for 24 hours following the last dose for PK sampling and spirometry. Visit 3 was a follow-up visit, 7 to 10 days after the last dose. Cohorts were dosed as follows:
# (§4) The first doses for twice daily (BID) and three times daily (TID) were administered in the morning, starting at approximately 0700 hours on each day of dosing. BID doses were administered at 12 hour intervals and TID doses were administered at 6 hour intervals each dose day.
# (§5) Pharmacokinetic endpoints (Cmax, Tmax, AUC, T1/2) and dose proportionality was assessed based on a limited number of plasma samples following the first dose on Day 1 and last dose on Day 10
# (§6) Pharmacokinetic variables (Cmax, Tmax, AUC, T1/2) were evaluated based on blood samples drawn following first dose (Days 1-2) and last dose (Days 10-11).
# [1] = human, in vivo
# Description: as §2, §3, §4, §5, §6
# [2] = Competitive slurry stability study between P-2 and P-3 (PXRD quantitative phase analysis); assay type: physicochemical; details: 50/50 acetonitrile/water, 25° C., over 10 days
# [3] = for Total Imp/Deg: listed as P224-163-1; for number of impurity peaks: listed as P-3
# Method: Forced degradation experiments consisted of placing solid samples of P-2 hydrate and P-3 dihydrate materials in sealed glass bottles at 120° C. for 7 days.
# [4] = Slurry of equal mixture of six phases in 75/25 acetone-water (PXRD); assay type: physicochemical; details: 25° C., 12 days, listed as P-3
# Method: An equal powder mixture of six known phases (P-2, P-3, P-4, P-6, P-7 and P-8), 50 mg each were stirred in 75/25 acetone-water solvent (50 mL) at 25° C. over 12 days.
# [5] = Stability of lactose formulation at 40° C./75% RH, sealed glass bottles, 39 weeks; assay type: physicochemical; details: lactose formulation 6.3% w/w
# Method: Formulation of the P-3 dihydrate form of the API with lactose (6.3% w/w) was placed on stability 40° C./75% RH in sealed glass bottles for 39 weeks. After samples removal, the lactose was removed by dissolution in purified water. The reference formulation was also subjected to the same lactose extraction procedure to eliminate the possibility for form conversion in water.
# [6] = human, in vivo; remark: listed apart in the source
# Method: The study consisted of 3 visits: Visit 1 (Screening), Visit 2 (Dosing) and Visit 3 (Follow up); subjects furloughed from the clinic between Visits 2 and 3.
# Both active and matched placebo were administered via face mask inhalation from a proprietary delivery system (MicroDose inhaler).
# Single doses were administered in the morning. TID doses will be administered at 6 hour intervals, with the 1st of the 3 doses administered in the morning.
# Pharmacokinetic variables (Cmax, Tmax, AUC, T1/2) were evaluated based on blood samples drawn at Visit 2.
# [7] = Crystal (skeletal) density by nitrogen pycnometry; assay type: physicochemical
# [8] = in vivo
# Description: The purpose of the following studies was to assess the safety, tolerability, local and systemic pharmacokinetics of single and multiple doses of MDT-637 P3 in healthy volunteers and asthmatics.
# (§1) In summary, the MicroDose Inhaler operation comprises the drug powder contained in a protective blister until delivery. The blister is pierced externally and then placed in contact with a piezoelectric vibrator within the MicroDose Inhaler. When the patient inhales, an airflow sensor automatically turns on the piezo which provides energy to deaggregate the particles of powder and aerosolizes them into the inhalation airstream, providing synchronized delivery. The MicroDose Inhaler was triggered by pressure drop and programmed to produce a series of brief aerosol bursts of predetermined duration within the range of 0.1 to 2.0 seconds, preferably 0.1 seconds, early during each inhalation cycle and for 16 consecutive breaths.
# [9] = human, in vivo; remark: listed apart in the source
# Description: as §1, with “breaths. The studies were conducted as follows:” for “breaths.”
# Study 3: A Double-Blind, Randomized, 3 Period Crossover, Single Ascending Dose Study to Assess the Safety and Tolerability of Inhaled MDT-637 P3 in Subjects with Intermittent or Mild-to-Moderate Persistent Asthma (Asthma Trial)
# The primary objective of Study 3 was to assess the safety and tolerability of MDT-637 P3 when inhaled by subjects with Intermittent, or Mild-to-Moderate Persistent, Asthma. A secondary objective of Study 3 was to determine the rate and extent of systemic absorption of MDT-637 and trough nasal wash MDT-637 drug concentrations following dry powder inhalation dosing.
# Each subject was dosed on 3 separate days during the study. Each subject received an initial dose of placebo (Period 1), followed by random allocation at Period 2 to a single dose of nasally inhaled MDT-637 P3 or double blind placebo. After an observation and furlough period, subjects returned for Period 3 to receive three doses of study drug (MDT-637 P3 or placebo) over a single day as listed below. The study consisted of 5 visits: Visit 1 (Screening), Visits 2, 3 and 4 (Dosing), and Visit 5 (Follow up); subjects were furloughed from the clinic for 6 up to 14 days between Visits 3 and 4 and 7-8 days between Visit 4 and 5. Subjects who met all of the inclusion criteria and none of the exclusion criteria (Table 19, FIG. 29) at Visit 1 were eligible to return for Visit 2 within 42 days of screening. Subjects were admitted to the study center twice, once for Visit 2 and again for Visit 4. Visit 5, was a safety follow up (outpatient) visit.
# The doses of MDT-637 P3 were determined based on previous clinical experience in Study 1. Both placebo and active were administered as a dry powder for nasal inhalation via a face mask using a MicroDose Inhaler device. At Visit 2, all 10 patients were dosed with placebo Once Daily. At Visit 3, subjects were randomly allocated so that 8 subjects were dosed with MDT-637 P3 Once Daily 66 mcg and 2 subjects received double blind placebo. At Visit 4, subjects were again randomly allocated so that 8 subjects were dosed with MDT-637 TID 132 mcg and 2 subjects received double blind placebo.
# Pharmacokinetic variables (Cmax, Tmax, AUC, T1/2) were evaluated based on blood samples drawn at Visit 4.
# [10] = Bulk powder density and flow indices (volumetric); assay type: physicochemical
# [11] = 40° C./75% RH, 4 weeks
# [12] = Specific surface area (BET); assay type: physicochemical
# [13] = Particle size of micronized material (Sympatec HELOS & RODOS); assay type: physicochemical
# [14] = Storage stability of micronized API in amber glass bottles (DSC, PXRD); assay type: physicochemical; details: 25° C./60% RH and 40° C./75% RH, through 12 months
# Method: The micronized, P-3 dihydrate material was stored in 1.85 mL amber bottles with Teflon lined caps. The 25° C./60% RH and 40° C./75% RH simulated storage and worst-case storage conditions correspondingly.
# [15] = Critical water activity by DVS sorption/desorption isotherms; assay type: physicochemical; details: 20° C.
# Description: The characteristic gravimetric loss of water is between 1-4.5% w/w.
# The characteristic gravimetric loss of water for P-3 dihydrate is between 5.5-8.5% w/w. The profound difference of the DVS curves between the P-2 and P-3 forms can be utilized as a secondary technique for quantitative phase analysis of these forms.
smiles,measurement,setting,value
"Cc1nnnn1/N=C/c1ccc(O)c(C(c2ccc(O)cc2)c2cc(/C=N/n3nnnc3C)ccc2O)c1 [P-3 dihydrate, phenol, 2,2′-[(4-hydroxyphenyl)methylene]bis[4-[[(5-methyl-1H-tetrazol-1-yl)imino]methyl]]]",AUC(0-t),clinical,1.16 ng·h/mL
same,CVs of PK exposure,[1],15-30%
same,"clinically significant changes in labs, vital signs, ECGs, physical exams",[1],No clinically significant changes
same,TEAEs considered related to study treatment,[1]; 10 days,5 TEAEs
same,subjects reporting TEAEs,[1]; 10 days,13 subjects
same,subjects reporting no TEAEs,[1]; 10 days,25 subjects
same,total TEAEs overall,[1]; 10 days,20 TEAEs
same,form conversion in competitive slurry,[2],converts to P-2
same,Grand Total,[3]; 120C/7D,99.8 Area %
same,Total Imp/Deg,[3]; 120C/7D,6.49 Area %
same,Impurity/Degradation Product A,[3]; 7 days,0.12 Area %
same,Impurity/Degradation Product B,[3]; 7 days,3.60 Area %
same,Impurity/Degradation Product C,[3]; 7 days,0.17 Area %
same,Impurity/Degradation Product D,[3]; 7 days,0.48 Area %
same,Impurity/Degradation Product E,[3]; 7 days,0.28 Area %
same,Impurity/Degradation Product F,[3]; 7 days,0.08 Area %
same,Impurity/Degradation Product G,[3]; 7 days,0.05 Area %
same,Impurity/Degradation Product H,[3]; 7 days,0.43 Area %
same,Impurity/Degradation Product I,[3]; 7 days,0.17 Area %
same,Impurity/Degradation Product K,[3]; 7 days,0.13 Area %
same,Impurity/Degradation Product L,[3]; 7 days,0.06 Area %
same,Impurity/Degradation Product M,[3]; 7 days,0.09 Area %
same,Impurity/Degradation Product N,[3]; 7 days,0.07 Area %
same,Impurity/Degradation Product O,[3]; 7 days,0.37 Area %
same,Impurity/Degradation Product P,[3]; 7 days,0.36 Area %
same,Impurity/Degradation Product Q,[3]; 7 days,0.05 Area %
same,Grand Total,[3]; CTRL,99.9 Area %
same,Total Imp/Deg,[3]; CTRL,1.16 Area %
same,number of impurity peaks,[3]; control,6 peaks
same,number of impurity peaks,"[3]; stressed sample, 120° C. for 7 days",16 peaks
same,form conversion / stability in six-phase slurry,[4],convert to P-2 hydrate
same,change of crystal form in formulation with lactose,[5],stable against solid-state conversion
same,changes in pulmonary function / pulmonary AEs,[6],No significant changes in pulmonary function or reports of pulmonary AEs
same,"clinically significant changes in labs, vital signs, ECGs, physical exams",[6],No clinically significant changes
same,treatment emergent adverse event considered possibly related by PI,[6],Mild dizziness
same,nasal wash levels,[6]; 24 h,> MDT-637 P3's IC50 for RSV
same,Crystal (skeletal) density,[7],1.61 g/mL
same,"clinically significant changes in ECG, laboratory values, vital signs or physical exam",[8],no clinically significant changes
same,pulmonary adverse events or changes in pulmonary function,[8],no pulmonary adverse events or changes in pulmonary function were observed
same,serious adverse events,[8],no serious adverse events were observed
same,systemic exposure,[8],highly consistent and low systemic exposure
same,"clinically significant changes in labs, vital signs, ECGs, physical exams",[9],No clinically significant changes
same,clinically significant changes in pulmonary function / pulmonary AEs,[9],No clinically significant changes in pulmonary function or reports of pulmonary AEs
same,"pharmacokinetics, asthmatic vs healthy population",[9],comparable between the healthy and asthmatic population
same,subjects reporting adverse events,[9]; 3 separate dosing days,2/10
same,subjects reporting no adverse events,[9]; 3 separate dosing days,8/10
same,Carr index,[10],27.5%
same,Hausner ratio,[10],1.38
same,Poured bulk powder density,[10],0.22 g/mL
same,Tapped bulk powder density,[10],0.30 g/mL
same,Assay,"[11]; open dish, listed as P-3",96.7%
same,Rel Subs,"[11]; open dish, listed as P-3",0.67%
same,Water,"[11]; open dish, listed as P-3",5.9%
same,change of form / solid-state stability (DSC and PXRD),[11]; open wide glass bottles,no change of form
same,chemical stability,[11]; open wide glass bottles,Acceptable chemical stability
same,Specific surface area,[12],11.0 m^2/g
same,Characteristic medium volume particle size (micronized),[13],1.5 μm
same,change in form (DSC and PXRD),[14],no change in form was observed
same,transition point (monohydrate),"[15]; 1% RH steps, first of two transition points",approximately 3 % RH
same,transition point (dihydrate),"[15]; 1% RH steps, second of two transition points",~13 % RH
same,Characteristic relative humidity of dehydration (20° C.),[15],3-17%
